The record followed here is US20240269139A1, “COMPOUNDS FOR TARGETED PROTEIN DEGRADATION OF KINASES” (DANA-FARBER CANCER INSTITUTE, INC., priority 2020, published 2024).

One assay addresses T1, GCK (Homo sapiens, UniProt Q12851).
T1 construct: host or cells: CRBN-/- MOLT-4
T1 sequence (Q12851 1-820): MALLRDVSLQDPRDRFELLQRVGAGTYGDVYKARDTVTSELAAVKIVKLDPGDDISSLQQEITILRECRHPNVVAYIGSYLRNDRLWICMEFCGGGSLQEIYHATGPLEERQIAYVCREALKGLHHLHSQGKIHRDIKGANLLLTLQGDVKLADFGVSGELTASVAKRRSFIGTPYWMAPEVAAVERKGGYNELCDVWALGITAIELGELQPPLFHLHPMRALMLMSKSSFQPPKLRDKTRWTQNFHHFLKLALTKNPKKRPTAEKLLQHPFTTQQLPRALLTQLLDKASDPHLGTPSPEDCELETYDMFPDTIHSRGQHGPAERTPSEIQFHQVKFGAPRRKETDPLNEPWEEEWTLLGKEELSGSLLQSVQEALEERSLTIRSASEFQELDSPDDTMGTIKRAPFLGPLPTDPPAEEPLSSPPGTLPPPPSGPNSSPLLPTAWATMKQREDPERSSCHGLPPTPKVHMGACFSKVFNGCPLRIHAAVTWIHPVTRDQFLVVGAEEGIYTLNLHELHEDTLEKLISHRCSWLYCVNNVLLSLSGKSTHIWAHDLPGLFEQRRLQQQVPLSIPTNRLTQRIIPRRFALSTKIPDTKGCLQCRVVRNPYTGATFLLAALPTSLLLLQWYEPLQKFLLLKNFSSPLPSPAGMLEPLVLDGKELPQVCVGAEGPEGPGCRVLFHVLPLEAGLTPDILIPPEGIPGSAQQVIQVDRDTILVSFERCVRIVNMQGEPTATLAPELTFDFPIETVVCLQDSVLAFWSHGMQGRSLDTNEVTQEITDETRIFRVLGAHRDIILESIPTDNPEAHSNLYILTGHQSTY
Put plainly: KiNativ live cell profiling, GCK. In kind it is cell-based, H. sapiens. Particulars: MOLT-4 CRBN−/− cells, 1 μM, 5 h. As for the experimental part: One of the key features of degraders is their potential for a sub-stoichiometric mode of action (Paiva and Crews, Curr Opin Chem Biol 50:111-119 (2019)). […] While this has been confirmed in a limited number of individual studies, the generalizability of this hypothesis was tested across the kinome. […] The focus of this test was to establish whether cellular target engagement (target occupancy) correlates with degrader efficacy. […] KiNativ™ is an activity based chemoproteomic assay, which measures the ability of a small molecule of interest to block the binding of a covalent ATP-mimetic probe. […] Furthermore, the proportion of degraded kinases with detectable binding varied dramatically from compound to compound, and was unrelated to cellular permeability (FIG. 3F).
CRBN^−/− MOLT-4 cells were plated in fresh media (RPMI-1640+10% FBS) in 15 cm plates and treated for 5 hours with candidate compounds. To harvest cells, plates were harvested using detachment using CellStripper™ detachment solution (Corning®) and washed 2× with cold phosphate-buffered saline (abbreviated PBS), followed by centrifugation and snap-freezing of cell pellets in liquid nitrogen. The remainder of the KiNativ® profiling experiment was performed by ActivX® Biosciences (La Jolla. CA).

Assay [1] concerns the target T2, CRBN-degrader-kinase ternary complexes (Homo sapiens, UniProt Q96SW2).
T2 construct: host or cells: HEK293T
As to the kind of experiment: FLAG-CRBN affinity purification TMT LC-MS3 (AP-MS) of degrader-mediated ternary complexes. To be noted: for enriched proteins in the CRBN AP-MS: relative to SB1-G-187 and WH-10417-099. Format: cell-based, H. sapiens. An excerpt: An important aspect of protein degraders is the multifaceted nature of the molecule that enables heightened target selectivity due to differences in complementarity of target-ligase interactions, which is not a consideration when assessing selectivity of inhibitors for target engagement (Famaby el al., Nat Chem Biol 15:672-680 (2019)). For compound-induced degradation to be successful, productive ternary complex formation (ligase-degrader-POI) is necessary for proximity-mediated ubiquitin transfer onto the POI. […] Cellular affinity purification was performed, followed by mass spectrometry (AP-MS) of FLAG-tagged CRBN transiently overexpressed in HEK293T cells. FLAG-CRBN expressing cells were co-treated with proteosome inhibitor and 1 μM of each degrader for 5 h, and the degree of kinase target enrichment was compared to kinase degradation hits in matched global proteomics analysis experiments (FIG. 3A, FIG. 3C). The proteins identified as complexed with CRBN were enriched for kinases as well as their known binding partners such as Cyclin B (CDK1) and RASSF1 (STK4), consistent with the binding profiles of the assayed degraders. All kinases identified by AP-MS except CSNK1A1 were also detected in the HEK293T whole proteome degrader profiling experiment, allowing us to interrogate trends across 52 unique kinases (FIG. 4A; FIG. 11B). Limitations of this experiment include the potential loss of transient or weakly bound complexes in the enrichment and subsequent wash steps, the inherent noise associated with AP-MS relative to global proteomics analysis (Dunham et al., Proteomics 12:1576-1590 (2012): Yugandhar et al., Comput Struct Biotechnol J 17:805-811 (2019)) and the short time point of the experiment, which precludes detection of degradation events with slow kinetics. Therefore, the relationship between the formation of abundant, stable ternary complexes and rapid degradation was assessed.
HEK293T cells were seeded into 15 cm plates and cells were transiently transfected with 8 μg of pNTM-FLAG-CRBN construct using lipofectamine 2000. […] Cells were harvested with non-enzymatic CellStripper™ Dissociation reagent (Corning®), followed by three washes with cold PBS and snap freezing. Cell lysis was performed by the addition of IP lysis buffer (50 mM Tris. pH 7.5, 0.5% NP-40, 1 mM EDTA, 10% glycerol and 200 mM NaCl) containing protease inhibitor cocktail (cOmplete™) and relevant co-treatment (above), followed by end-over-end rotation at 4° C. for 3 hours. Lysate was clarified by centrifugation and salt concentration diluted to 100 mM NaCl with the addition of 0 mM NaCl lysis buffer (containing protease inhibitors and 1 μM of relevant compounds to retain temary complexes throughout binding). Lysate was added to 20 μL of pre-washed anti-FLAG M2 magnetic bead slurry (MilliporeSigma) and incubated with end-over-end rotation at 4° C. overnight. Beads were washed six times with 100 mM NaCl lysis buffer containing 1 μM of relevant degraders to retain ternary complexes throughout wash steps.
Proteins were eluted in a two-step elution with the addition of 0.1 M Glycine hydrochloride (MilliporeSigma) and elution buffered to pH 8.5 using 200 mM Tris buffer, pH 8.5. […] Protein pellets were resuspended in 50 μL of EPPs pH 8 and first digested with 2 μg LysC for 12 h at room temperature (RT), followed by 1 μg of trypsin for 6 hours at 37° C.

[2] abbreviates: HEK293T, 1 μM, 5 h, proteasome inhibitor.

Each structure is given as a SMILES string.

T2 sequence (Q96SW2 whole entry): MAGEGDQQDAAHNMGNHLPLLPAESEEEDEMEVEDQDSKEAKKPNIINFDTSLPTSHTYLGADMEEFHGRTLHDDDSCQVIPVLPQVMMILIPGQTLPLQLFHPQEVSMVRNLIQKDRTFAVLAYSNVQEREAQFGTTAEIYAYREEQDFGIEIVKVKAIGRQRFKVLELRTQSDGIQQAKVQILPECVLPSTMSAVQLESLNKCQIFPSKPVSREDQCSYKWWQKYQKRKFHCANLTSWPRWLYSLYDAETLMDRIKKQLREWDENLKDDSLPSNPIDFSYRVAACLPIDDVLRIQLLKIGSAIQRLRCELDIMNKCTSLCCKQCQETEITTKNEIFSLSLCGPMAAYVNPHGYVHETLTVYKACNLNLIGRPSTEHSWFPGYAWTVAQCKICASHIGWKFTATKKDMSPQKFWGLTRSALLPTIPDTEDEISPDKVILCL
T2 sequence (Q16531 whole entry partner): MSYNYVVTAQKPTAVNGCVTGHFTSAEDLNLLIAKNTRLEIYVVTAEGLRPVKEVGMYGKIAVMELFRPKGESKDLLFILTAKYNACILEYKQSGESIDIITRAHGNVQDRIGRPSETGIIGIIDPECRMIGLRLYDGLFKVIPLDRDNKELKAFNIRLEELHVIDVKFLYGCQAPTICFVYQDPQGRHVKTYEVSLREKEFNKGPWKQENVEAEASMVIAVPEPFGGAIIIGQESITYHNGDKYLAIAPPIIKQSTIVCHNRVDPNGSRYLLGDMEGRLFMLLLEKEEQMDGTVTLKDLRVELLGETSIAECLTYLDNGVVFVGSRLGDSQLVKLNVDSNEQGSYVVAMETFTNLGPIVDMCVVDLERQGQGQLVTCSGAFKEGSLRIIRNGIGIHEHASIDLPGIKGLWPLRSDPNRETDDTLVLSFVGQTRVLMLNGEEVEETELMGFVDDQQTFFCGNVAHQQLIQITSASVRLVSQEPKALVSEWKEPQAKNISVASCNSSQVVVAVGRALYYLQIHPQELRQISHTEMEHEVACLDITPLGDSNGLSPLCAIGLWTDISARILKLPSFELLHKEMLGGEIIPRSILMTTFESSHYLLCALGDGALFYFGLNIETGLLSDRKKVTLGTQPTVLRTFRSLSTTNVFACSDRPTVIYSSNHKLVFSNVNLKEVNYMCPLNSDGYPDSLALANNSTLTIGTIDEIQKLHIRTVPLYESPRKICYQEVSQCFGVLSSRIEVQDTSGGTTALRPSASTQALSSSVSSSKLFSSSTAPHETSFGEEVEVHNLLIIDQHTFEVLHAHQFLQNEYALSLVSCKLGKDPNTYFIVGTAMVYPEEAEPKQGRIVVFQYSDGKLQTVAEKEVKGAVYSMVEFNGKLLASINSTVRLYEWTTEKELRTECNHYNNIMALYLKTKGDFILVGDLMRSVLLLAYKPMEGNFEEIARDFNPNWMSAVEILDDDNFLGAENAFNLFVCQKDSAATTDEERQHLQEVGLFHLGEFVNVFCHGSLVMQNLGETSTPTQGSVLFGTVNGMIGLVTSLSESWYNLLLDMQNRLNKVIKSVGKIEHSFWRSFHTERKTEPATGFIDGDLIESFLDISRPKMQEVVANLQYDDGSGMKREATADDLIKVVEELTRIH

Take `CC(C)S(=O)(=O)c1ccccc1Nc1nc(Nc2ccc(N3CCN(CCOCCNC(=O)CNc4cccc5c4C(=O)N(C4CCC(=O)NC4=O)C5=O)CC3)cc2)ncc1Cl` (stereo not shown) [SK-3-91]: the “GCK inhibition of probe binding (KiNativ)” value (“GCK inhibition” for short) at GCK came out at 50 % I. In addition, in assay [1] (setting [2]), the “YES1: ternary complex formation with CRBN versus degradation” value (“YES1 … with CRBN versus degradation” for short) is reported as “complex formation does not predict degradation”. Also, the “enriched proteins in the CRBN AP-MS” value in assay [1] is reported as “fewer enriched proteins”.
As to `Cc1ccc(NC(=O)c2cccc(C(F)(F)F)c2)cc1N1Cc2cnc(Nc3ccc(N4CCN(Cc5cn(CCCCCOc6cccc7c6C(=O)N(C6CCC(=O)NC6=O)C7=O)nn5)CC4)nc3)nc2N(C)C1=O` (stereo not shown) [DB0646, N-(3-(7-((6-(4-((1-(5-((2-(2,6-Dioxopiperidin-3-yl)-1,3-dioxoisoindolin-4-yl)oxy)pentyl)-1H-1,2,3-triazol-4-yl)methyl)piperazin-1-v)pyridin-3-yl)amino)-1-methyl-2-oxo-1,4-dihydropyrimido[4,5-d]pyrimidin-3(2H)-yl)-4-methylphenyl)-3-(trifluoromethyl)benzamide], the “GCK inhibition” value at GCK is on record as 58 % I. In addition, the “YES1 … with CRBN versus degradation” value in assay [1] (setting [2]) is “complex formation and degradation are sometimes detected together”. Besides, in assay [1], the “enriched proteins in the CRBN AP-MS” value was “fewer enriched proteins”.
On to `Cc1ccc(C(=O)Nc2ccc(CN3CCN(CCCOCCOCCOCCNC(=O)COc4cccc5c4C(=O)N(C4CCC(=O)NC4=O)C5=O)CC3)c(C(F)(F)F)c2)cc1C#Cc1cnc2cccnn12` (stereo not shown) [SB1-G-187, N-(4-((4-(1-((2-(2,6-dioxopiperidin-3-yl)-1,3-dioxoisoindolin-4-yl)oxy)-2-oxo-6,9,12-trioxa-3-azapentadecan-15-yl)piperazin-1-yl)methyl)-3 (trifluoromethyl)phenyl)-3-(imidazo[1,2-b]pyridazin-3-ylethynyl)-4-methylbenzamide], for which the “GCK inhibition” value at GCK came out at 94 % I. In addition, in assay [1] (setting [2]), the “IRAK1: ternary complex formation with CRBN versus degradation” value was “complex formation and degradation are sometimes detected together”; the “LYN: ternary complex formation with CRBN versus degradation” value is “complex formation and degradation are sometimes detected together”; the “YES1 … with CRBN versus degradation” value is “complex formation and degradation are sometimes detected together”.
